Data as given in doi:10.1101/2023.11.24.568596v1 (biorxiv, 2023).

Key:
Conditions in all cases: binder
SRC = SRC (Homo sapiens, UniProt P12931)
TLK1 = molecular target: T1, TLK1 (Homo sapiens, UniProt Q9UKI8)
T1 sequence (Q9UKI8 1-766): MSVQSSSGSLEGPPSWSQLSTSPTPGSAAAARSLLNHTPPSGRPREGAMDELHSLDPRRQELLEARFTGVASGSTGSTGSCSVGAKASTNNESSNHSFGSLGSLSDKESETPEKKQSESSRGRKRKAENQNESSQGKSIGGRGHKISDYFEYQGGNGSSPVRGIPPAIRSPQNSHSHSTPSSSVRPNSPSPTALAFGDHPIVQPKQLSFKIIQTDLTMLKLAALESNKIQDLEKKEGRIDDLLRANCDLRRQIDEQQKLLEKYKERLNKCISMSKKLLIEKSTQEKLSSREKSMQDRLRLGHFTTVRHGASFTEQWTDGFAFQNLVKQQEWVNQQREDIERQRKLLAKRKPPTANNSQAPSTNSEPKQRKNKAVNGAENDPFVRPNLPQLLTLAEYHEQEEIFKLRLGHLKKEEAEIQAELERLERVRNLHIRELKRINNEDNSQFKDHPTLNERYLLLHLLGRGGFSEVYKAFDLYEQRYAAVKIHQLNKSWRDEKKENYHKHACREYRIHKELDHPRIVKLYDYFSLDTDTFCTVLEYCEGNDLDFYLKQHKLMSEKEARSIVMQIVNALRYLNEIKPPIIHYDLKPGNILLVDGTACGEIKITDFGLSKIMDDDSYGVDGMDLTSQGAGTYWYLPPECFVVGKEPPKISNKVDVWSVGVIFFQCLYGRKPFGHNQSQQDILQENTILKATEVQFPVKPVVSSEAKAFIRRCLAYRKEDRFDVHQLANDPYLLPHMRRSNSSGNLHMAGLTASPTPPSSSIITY

VRK1 = molecular target: T2, VRK1 (Homo sapiens, UniProt Q99986)
T2 sequence (Q99986 1-396): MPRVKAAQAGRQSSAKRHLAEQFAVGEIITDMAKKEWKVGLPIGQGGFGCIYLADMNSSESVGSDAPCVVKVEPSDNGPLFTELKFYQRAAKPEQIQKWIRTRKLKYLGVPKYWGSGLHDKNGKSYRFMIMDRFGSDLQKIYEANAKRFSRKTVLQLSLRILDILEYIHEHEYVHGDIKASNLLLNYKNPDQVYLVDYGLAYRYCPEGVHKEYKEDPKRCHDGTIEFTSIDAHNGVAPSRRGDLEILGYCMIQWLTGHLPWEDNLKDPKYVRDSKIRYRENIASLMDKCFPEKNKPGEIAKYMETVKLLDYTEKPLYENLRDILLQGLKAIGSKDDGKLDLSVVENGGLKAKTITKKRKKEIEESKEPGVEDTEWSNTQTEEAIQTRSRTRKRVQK

SRPK1 = SRPK1 (Homo sapiens, UniProt Q96SB4)
STLK3 = STLK3 (Homo sapiens, UniProt Q9UEW8)
Wnk1 = Wnk1 (Homo sapiens, UniProt Q9H4A3)
MST4 = MST4 (Homo sapiens, UniProt Q9P289)
MST2 = molecular target: T3, MST2 (Homo sapiens, UniProt Q13188)
T3 sequence (Q13188 1-491): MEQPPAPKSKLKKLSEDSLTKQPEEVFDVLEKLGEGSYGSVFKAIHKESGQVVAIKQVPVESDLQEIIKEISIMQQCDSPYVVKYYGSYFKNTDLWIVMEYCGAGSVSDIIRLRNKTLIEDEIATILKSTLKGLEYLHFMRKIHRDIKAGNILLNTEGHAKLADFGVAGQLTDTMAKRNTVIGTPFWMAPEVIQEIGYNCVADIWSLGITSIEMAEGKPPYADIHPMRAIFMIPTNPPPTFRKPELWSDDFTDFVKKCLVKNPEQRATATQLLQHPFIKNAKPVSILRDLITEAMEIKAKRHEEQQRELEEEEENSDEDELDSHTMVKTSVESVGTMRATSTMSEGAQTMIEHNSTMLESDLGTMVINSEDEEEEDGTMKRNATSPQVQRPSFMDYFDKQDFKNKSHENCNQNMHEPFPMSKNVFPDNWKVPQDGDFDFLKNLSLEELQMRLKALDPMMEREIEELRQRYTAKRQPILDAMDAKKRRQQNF

Sequence of SRC (P12931 whole entry): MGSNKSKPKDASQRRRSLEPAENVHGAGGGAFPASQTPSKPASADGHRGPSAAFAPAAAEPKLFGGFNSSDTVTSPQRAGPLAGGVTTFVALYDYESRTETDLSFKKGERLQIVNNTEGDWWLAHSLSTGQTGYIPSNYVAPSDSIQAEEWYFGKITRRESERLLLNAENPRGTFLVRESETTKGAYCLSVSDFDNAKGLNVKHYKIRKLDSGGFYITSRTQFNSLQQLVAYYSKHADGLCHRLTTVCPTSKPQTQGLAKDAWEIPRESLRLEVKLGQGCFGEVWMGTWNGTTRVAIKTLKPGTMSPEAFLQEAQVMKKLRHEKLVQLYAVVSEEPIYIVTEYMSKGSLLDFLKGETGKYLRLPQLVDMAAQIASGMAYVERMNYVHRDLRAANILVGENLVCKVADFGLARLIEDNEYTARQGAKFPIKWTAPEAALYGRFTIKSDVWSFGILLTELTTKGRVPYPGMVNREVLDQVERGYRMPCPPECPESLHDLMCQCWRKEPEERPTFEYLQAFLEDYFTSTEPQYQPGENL
Sequence of Wnk1 (Q9H4A3 whole entry): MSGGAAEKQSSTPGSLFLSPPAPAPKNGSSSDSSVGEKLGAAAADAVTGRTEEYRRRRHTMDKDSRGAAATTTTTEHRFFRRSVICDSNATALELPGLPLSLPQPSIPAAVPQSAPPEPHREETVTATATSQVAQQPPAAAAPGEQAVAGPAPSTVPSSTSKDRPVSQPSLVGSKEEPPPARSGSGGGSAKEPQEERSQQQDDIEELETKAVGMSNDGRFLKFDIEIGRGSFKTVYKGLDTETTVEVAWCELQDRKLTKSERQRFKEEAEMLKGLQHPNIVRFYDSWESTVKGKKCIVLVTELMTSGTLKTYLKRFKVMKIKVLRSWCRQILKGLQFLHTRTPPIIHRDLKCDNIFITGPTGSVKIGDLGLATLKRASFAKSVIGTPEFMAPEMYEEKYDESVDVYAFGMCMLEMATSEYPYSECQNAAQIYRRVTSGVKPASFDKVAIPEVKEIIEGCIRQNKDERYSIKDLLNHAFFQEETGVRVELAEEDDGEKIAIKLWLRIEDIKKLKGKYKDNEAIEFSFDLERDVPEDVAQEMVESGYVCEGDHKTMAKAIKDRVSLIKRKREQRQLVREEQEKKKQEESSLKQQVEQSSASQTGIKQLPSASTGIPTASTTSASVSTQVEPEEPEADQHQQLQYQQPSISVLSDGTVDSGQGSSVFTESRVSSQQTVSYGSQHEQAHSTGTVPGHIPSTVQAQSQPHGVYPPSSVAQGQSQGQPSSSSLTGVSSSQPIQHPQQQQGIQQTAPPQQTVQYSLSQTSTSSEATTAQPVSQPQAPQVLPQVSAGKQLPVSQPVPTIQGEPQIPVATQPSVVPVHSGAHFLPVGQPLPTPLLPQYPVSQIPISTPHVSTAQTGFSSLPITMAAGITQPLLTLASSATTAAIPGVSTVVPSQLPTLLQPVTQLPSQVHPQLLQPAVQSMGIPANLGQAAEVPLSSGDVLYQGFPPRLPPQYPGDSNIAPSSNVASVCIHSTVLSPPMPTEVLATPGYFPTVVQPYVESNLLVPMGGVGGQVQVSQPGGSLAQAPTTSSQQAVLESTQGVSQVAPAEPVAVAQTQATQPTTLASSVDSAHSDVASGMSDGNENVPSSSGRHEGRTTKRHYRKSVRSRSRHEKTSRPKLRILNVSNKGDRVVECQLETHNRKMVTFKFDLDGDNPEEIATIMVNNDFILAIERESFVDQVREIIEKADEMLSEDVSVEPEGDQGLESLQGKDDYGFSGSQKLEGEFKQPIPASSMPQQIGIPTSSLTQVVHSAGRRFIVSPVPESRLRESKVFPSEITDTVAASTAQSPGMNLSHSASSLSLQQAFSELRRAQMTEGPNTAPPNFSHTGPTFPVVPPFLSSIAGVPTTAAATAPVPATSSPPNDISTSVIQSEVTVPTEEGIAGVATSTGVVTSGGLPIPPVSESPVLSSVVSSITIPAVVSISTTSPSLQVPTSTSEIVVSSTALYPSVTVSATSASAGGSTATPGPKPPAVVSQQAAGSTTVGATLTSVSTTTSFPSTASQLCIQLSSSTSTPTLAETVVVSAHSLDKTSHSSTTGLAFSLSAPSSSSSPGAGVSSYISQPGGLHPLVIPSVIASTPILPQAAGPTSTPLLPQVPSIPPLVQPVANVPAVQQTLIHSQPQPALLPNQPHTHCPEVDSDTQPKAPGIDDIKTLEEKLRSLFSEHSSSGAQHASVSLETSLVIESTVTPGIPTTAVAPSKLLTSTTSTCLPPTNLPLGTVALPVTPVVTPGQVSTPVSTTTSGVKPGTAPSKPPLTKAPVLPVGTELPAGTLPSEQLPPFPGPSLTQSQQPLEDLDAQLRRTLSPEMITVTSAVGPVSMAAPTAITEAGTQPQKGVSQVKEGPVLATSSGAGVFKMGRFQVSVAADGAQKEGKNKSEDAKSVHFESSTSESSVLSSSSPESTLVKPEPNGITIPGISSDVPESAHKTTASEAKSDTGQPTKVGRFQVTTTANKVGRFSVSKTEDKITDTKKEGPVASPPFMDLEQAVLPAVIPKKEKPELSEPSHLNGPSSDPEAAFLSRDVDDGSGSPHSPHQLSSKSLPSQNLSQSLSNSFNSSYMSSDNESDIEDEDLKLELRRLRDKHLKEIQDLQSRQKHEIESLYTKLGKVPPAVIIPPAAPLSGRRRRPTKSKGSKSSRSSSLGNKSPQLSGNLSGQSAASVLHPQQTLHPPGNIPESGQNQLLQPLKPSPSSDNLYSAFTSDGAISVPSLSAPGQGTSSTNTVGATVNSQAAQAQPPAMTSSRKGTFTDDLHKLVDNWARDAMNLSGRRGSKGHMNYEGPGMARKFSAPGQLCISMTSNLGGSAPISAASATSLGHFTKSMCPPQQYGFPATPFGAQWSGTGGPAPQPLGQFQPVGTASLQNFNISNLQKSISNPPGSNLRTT
Sequence of MST4 (Q9P289 whole entry): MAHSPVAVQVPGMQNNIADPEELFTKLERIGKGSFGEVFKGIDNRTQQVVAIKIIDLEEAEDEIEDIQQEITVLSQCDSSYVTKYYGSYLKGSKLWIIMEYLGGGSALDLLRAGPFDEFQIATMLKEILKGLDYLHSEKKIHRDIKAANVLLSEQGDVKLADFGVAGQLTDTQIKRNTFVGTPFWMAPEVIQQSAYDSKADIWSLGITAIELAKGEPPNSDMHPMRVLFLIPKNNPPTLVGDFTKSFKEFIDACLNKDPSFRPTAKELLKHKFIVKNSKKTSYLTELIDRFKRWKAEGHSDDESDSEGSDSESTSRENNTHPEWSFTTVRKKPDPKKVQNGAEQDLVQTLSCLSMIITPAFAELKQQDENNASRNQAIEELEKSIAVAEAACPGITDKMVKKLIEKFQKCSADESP
Sequence of SRPK1 (Q96SB4 whole entry): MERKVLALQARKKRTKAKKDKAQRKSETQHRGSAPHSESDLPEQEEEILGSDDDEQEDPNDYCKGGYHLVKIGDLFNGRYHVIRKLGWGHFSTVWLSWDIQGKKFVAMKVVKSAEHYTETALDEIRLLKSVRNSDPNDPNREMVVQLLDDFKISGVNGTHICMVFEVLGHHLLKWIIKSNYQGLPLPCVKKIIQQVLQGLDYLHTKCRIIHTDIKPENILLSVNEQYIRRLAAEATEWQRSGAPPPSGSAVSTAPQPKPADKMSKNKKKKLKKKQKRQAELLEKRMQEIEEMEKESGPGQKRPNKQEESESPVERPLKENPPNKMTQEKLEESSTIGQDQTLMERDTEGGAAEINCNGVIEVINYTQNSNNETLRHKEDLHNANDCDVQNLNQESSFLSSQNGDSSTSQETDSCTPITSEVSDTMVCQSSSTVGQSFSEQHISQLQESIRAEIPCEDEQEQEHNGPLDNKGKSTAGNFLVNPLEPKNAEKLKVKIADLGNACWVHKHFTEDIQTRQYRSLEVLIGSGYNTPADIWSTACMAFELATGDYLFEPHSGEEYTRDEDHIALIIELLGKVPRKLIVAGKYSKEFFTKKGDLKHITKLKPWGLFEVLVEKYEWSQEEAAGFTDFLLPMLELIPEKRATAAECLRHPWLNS

Which “ΔTm MRLW5 (20)” value (SRC) does the source give for `CNc1ncc2cc(-c3ccc(-c4cccc(C)n4)cc3Cl)c(=O)n(CCCCN)c2n1` [compound 20, MRLW5] here?
Its value is 0.9 °C.

And the “ΔTm MRLW5 (20)” value (TLK1)?
Its value is 0.6 °C.

What about the “ΔTm MRLW5 (20)” value (VRK1) of the same compound?
Its value is 0.0 °C.

What about the “ΔTm MRLW5 (20)” value (SRPK1) of the same compound?
The value was -0.2 °C.

And the “ΔTm MRLW5 (20)” value (STLK3)?
The value was 1.8 °C.

What about the “ΔTm MRLW5 (20)” value (Wnk1) of the same compound?
Its value is 1.7 °C.

What does the source list for `CNc1ncc2cc(-c3ccc(-c4cccc(C)n4)cc3Cl)c(=O)n(CCC3CCNCC3)c2n1` [compound 22, 6-(2-Chloro-4-(6-methylpyridin-2-yl)phenyl)-2-(methylamino)-8-(2-(piperidin-4-yl)ethyl)pyrido[2,3-d]pyrimidin-7(8H)-one]?
ΔTm 22 (SRC): 0.6 °C; ΔTm 22 (TLK1): 0.2 °C; ΔTm 22 (VRK1): -0.7 °C; ΔTm 22 (SRPK1): -0.2 °C; ΔTm 22 (STLK3): -3.0 °C; ΔTm 22 (Wnk1): 1.5 °C

With `CNc1ncc2cc(-c3ccc(-c4cccc(C)n4)cc3Cl)c(=O)n(C[C@H]3CC[C@H](N)CC3)c2n1` [compound 23, 23] as the compound, how does the “ΔTm 23” value (SRC) read?
Its value is 1.2 °C.

And the “ΔTm 23” value (TLK1)?
The value was 0.6 °C.

What about the “ΔTm 23” value (VRK1) of the same compound?
Its value is 0.5 °C.

And the “ΔTm 23” value (SRPK1)?
Its value is -0.5 °C.

What about the “ΔTm 23” value (STLK3) of the same compound?
The value was 3.3 °C.

What about the “ΔTm 23” value (Wnk1) of the same compound?
Its value is 2.1 °C.

For `Cc1cccc(-c2ccc(-c3cc4cnc(NC(CO)CO)nc4n(CCCCN)c3=O)c(Cl)c2)n1` [compound 24, 8-(4-Aminobutyl)-6-(2-chloro-4-(6-methylpyridin-2-yl)phenyl)-2-((1,3-dihydroxypropan-2-yl)amino)pyrido[2,3-d]pyrimidin-7(8H)-one], which “dTm MST4” value (MST4) is on record?
Its value is 8.1 °C.

And the “dTm MST2” value (MST2)?
Its value is 4.6 °C.

What about the “ΔTm MR24 (24)” value (SRC) of the same compound?
The value was 0.0 °C.

And the “ΔTm MR24 (24)” value (TLK1)?
The value was -1.8 °C.

And the “ΔTm MR24 (24)” value (VRK1)?
The value was 0.4 °C.

What about the “ΔTm MR24 (24)” value (SRPK1) of the same compound?
Its value is -0.1 °C.

What about the “ΔTm MR24 (24)” value (STLK3) of the same compound?
The value was 9.1 °C.

What about the “ΔTm MR24 (24)” value (Wnk1) of the same compound?
Its value is 0.2 °C.

For `Cc1cccc(-c2ccc(-c3cc4cnc(NCCCc5ccc(N)cc5)nc4n(CCCCN)c3=O)c(Cl)c2)n1` [compound 25, 8-(4-Aminobutyl)-2-((3-(4-aminophenyl)propyl)amino)-6-(2-chloro-4-(6-methylpyridin-2-yl)phenyl)pyrido[2,3-d]pyrimidin-7(8H)-one], which “dTm MST4” value (MST4) is on record?
The value was 9.7 °C.

And the “dTm MST2” value (MST2)?
The value was 7.2 °C.

What about the “ΔTm 25” value (SRC) of the same compound?
Its value is 1.0 °C.

And the “ΔTm 25” value (TLK1)?
Its value is -0.9 °C.

What about the “ΔTm 25” value (VRK1) of the same compound?
The value was 0.6 °C.

What about the “ΔTm 25” value (SRPK1) of the same compound?
The value was 0.1 °C.

And the “ΔTm 25” value (STLK3)?
The value was 13.0 °C.

And the “ΔTm 25” value (Wnk1)?
Its value is 2.7 °C.

For `Cc1cccc(-c2ccc(-c3cc4cnc(NCCCN5CCOCC5)nc4n(CCCCN)c3=O)c(Cl)c2)n1` [compound 26, MR26], which “dTm MST4” value (MST4) is on record?
The value was 10.6 °C.

What about the “dTm MST2” value (MST2) of the same compound?
Its value is 5.9 °C.

And the “ΔTm MR26 (26)” value (SRC)?
The value was 1.4 °C.

And the “ΔTm MR26 (26)” value (TLK1)?
The value was -1.6 °C.

What about the “ΔTm MR26 (26)” value (VRK1) of the same compound?
Its value is 0.4 °C.

And the “ΔTm MR26 (26)” value (SRPK1)?
The value was 0.1 °C.

What about the “ΔTm MR26 (26)” value (STLK3) of the same compound?
The value was 10.4 °C.

And the “ΔTm MR26 (26)” value (Wnk1)?
The value was 1.0 °C.

With `Cc1cccc(-c2ccc(-c3cc4cnc(NCCCN5CCCC5=O)nc4n(CCCCN)c3=O)c(Cl)c2)n1` [compound 27, MR30] as the compound, how does the “dTm MST4” value (MST4) read?
Its value is 7.5 °C.

And the “dTm MST2” value (MST2)?
The value was 2.2 °C.

And the “ΔTm MR30 (27)” value (SRC)?
The value was -0.5 °C.

What about the “ΔTm MR30 (27)” value (TLK1) of the same compound?
The value was -2.0 °C.

And the “ΔTm MR30 (27)” value (VRK1)?
The value was -0.1 °C.

And the “ΔTm MR30 (27)” value (SRPK1)?
Its value is -0.2 °C.

And the “ΔTm MR30 (27)” value (STLK3)?
The value was 10.0 °C.

What about the “ΔTm MR30 (27)” value (Wnk1) of the same compound?
Its value is 0.8 °C.

How did the “dTm MST4” value (MST4) turn out when `Cc1cccc(-c2ccc(-c3cc4cnc(Nc5cc(C(F)(F)F)ccc5C)nc4n(CCCCN)c3=O)c(Cl)c2)n1` [compound 28, 8-(4-Aminobutyl)-6-(2-chloro-4-(6-methylpyridin-2-yl)phenyl)-2-((2-methyl-5-(trifluoromethyl)phenyl)amino)pyrido[2,3-d]pyrimidin-7(8H)-one] was run?
Its value is 9.5 °C.

What about the “dTm MST2” value (MST2) of the same compound?
Its value is 10.2 °C.

And the “ΔTm 28” value (SRC)?
Its value is 3.4 °C.

And the “ΔTm 28” value (TLK1)?
Its value is -1.8 °C.

What about the “ΔTm 28” value (VRK1) of the same compound?
The value was 0.8 °C.

And the “ΔTm 28” value (SRPK1)?
Its value is 0.1 °C.

And the “ΔTm 28” value (STLK3)?
The value was 10.4 °C.

What about the “ΔTm 28” value (Wnk1) of the same compound?
The value was 2.8 °C.

Which “dTm MST4” value (MST4) does the source give for `Cc1cccc(-c2ccc(-c3cc4cnc(NCCCN5CCNCC5)nc4n(CCCCN)c3=O)c(Cl)c2)n1` [compound 29, 8-(4-Aminobutyl)-6-(2-chloro-4-(6-methylpyridin-2-yl)phenyl)-2-((3-(piperazin-1-yl)propyl)amino)pyrido[2,3-d]pyrimidin-7(8H)-one] here?
The value was 8.9 °C.

And the “dTm MST2” value (MST2)?
The value was 5.2 °C.

And the “ΔTm 29” value (SRC)?
Its value is 1.9 °C.

What about the “ΔTm 29” value (TLK1) of the same compound?
Its value is -1.5 °C.

And the “ΔTm 29” value (VRK1)?
The value was 0.4 °C.

And the “ΔTm 29” value (SRPK1)?
Its value is 0.1 °C.

And the “ΔTm 29” value (STLK3)?
The value was 8.8 °C.

What about the “ΔTm 29” value (Wnk1) of the same compound?
Its value is 0.6 °C.

For `Cc1cccc(-c2ccc(-c3cc4cnc(Nc5ccc(CCCO)cc5)nc4n(CCCCN)c3=O)c(Cl)c2)n1` [compound 30, 8-(4-Aminobutyl)-6-(2-chloro-4-(6-methylpyridin-2-yl)phenyl)-2-((4-(3-hydroxypropyl)phenyl)amino)pyrido[2,3-d]pyrimidin-7(8H)-one], which “dTm MST4” value (MST4) is on record?
The value was 15.3 °C.

What about the “dTm MST2” value (MST2) of the same compound?
Its value is 15.8 °C.

And the “ΔTm 30” value (SRC)?
Its value is 4.6 °C.

And the “ΔTm 30” value (TLK1)?
The value was -0.9 °C.

And the “ΔTm 30” value (VRK1)?
Its value is 0.3 °C.

What about the “ΔTm 30” value (SRPK1) of the same compound?
Its value is 0.0 °C.

And the “ΔTm 30” value (STLK3)?
The value was 16.6 °C.

What about the “ΔTm 30” value (Wnk1) of the same compound?
The value was 4.8 °C.

With `Cc1cccc(-c2ccc(-c3cc4cnc(Nc5ccc(F)c(CO)c5)nc4n(CCCCN)c3=O)c(Cl)c2)n1` [compound 33, 8-(4-Aminobutyl)-6-(2-chloro-4-(6-methylpyridin-2-yl)phenyl)-2-((4-fluoro-3-(hydroxymethyl)phenyl)amino)pyrido[2,3-d]pyrimidin-7(8H)-one] as the compound, how does the “dTm MST4” value (MST4) read?
Its value is 14.8 °C.

And the “dTm MST2” value (MST2)?
Its value is 16.0 °C.

What does the source list for `COc1ccc(O)c(Nc2ncc3cc(-c4ccc(-c5cccc(C)n5)cc4Cl)c(=O)n(CCCCN)c3n2)c1` [compound 34, 8-(4-Aminobutyl)-6-(2-chloro-4-(6-methylpyridin-2-yl)phenyl)-2-((2-hydroxy-5-methoxy-phenyl)amino)pyrido[2,3-d]pyrimidin-7(8H)-one]?
dTm MST4 (MST4): 8.3 °C; dTm MST2 (MST2): 5.4 °C

What does the source list for `COc1cc(N2CCOCC2)ccc1Nc1ncc2cc(-c3ccc(-c4cccc(C)n4)cc3Cl)c(=O)n(CCCCN)c2n1` [compound 35, 8-(4-Aminobutyl)-6-(2-chloro-4-(6-methylpyridin-2-yl)phenyl)-2-((2-methoxy-4-morpholino-phenyl)amino)pyrido[2,3-d]pyrimidin-7(8H)-one]?
dTm MST4 (MST4): 9.2 °C; dTm MST2 (MST2): 7.5 °C

Which “dTm MST4” value (MST4) does the source give for `COc1cc(N2CCN(C)CC2)ccc1Nc1ncc2cc(-c3ccc(-c4cccc(C)n4)cc3Cl)c(=O)n(CCCCN)c2n1` [compound 36, 8-(4-Aminobutyl)-6-(2-chloro-4-(6-methylpyridin-2-yl)phenyl)-2-((2-methoxy-4-(4-methylpiperazin-1-yl)phenyl)amino)pyrido[2,3-d]pyrimidin-7(8H)-one] here?
Its value is 6.7 °C.

And the “dTm MST2” value (MST2)?
Its value is 7.4 °C.
